Literature values, collected in patent publication US5401490A, “Markers of tissue hypoxia” (priority 1989, dated 1995).

Tests used:
V-79 hamster cells = conditions: hypoxic in vitro; cited from earlier work
EMT-6 cells = conditions: 50 μM comparison, previously determined value; cited from earlier work
EMT-6 murine tumor cells = conditions: hypoxic in vitro; cited from earlier work
EMT-6 tumors = conditions: BALB/C mice; cited from earlier work
hypoxic cell [1] = conditions: in vitro; cited from earlier work
hypoxic cell [2] = conditions: in vitro; cited from earlier work; remark: listed apart in the source
[3] = cited from earlier work

Row | SMILES | binding to the macromolecular fraction (V-79 hamster cells) | sensitizer enhancement ratio (SER) (EMT-6 cells) | binding to the macromolecular fraction (EMT-6 murine tumor cells) | binding to EMT-6 tumors in vivo (EMT-6 tumors) | hypoxic cell toxicity compared with MISO (hypoxic cell [1]) | rates of binding compared with MISO (hypoxic cell [2]) | metabolic deiodination in vivo [3]
1 | COCC(O)Cn1ccnc1[N+](=O)[O-] (centres unmarked) [MISO, misonidazole] | selectively bound to the macromolecular fraction | 1.2 | selectively bound to the macromolecular fraction | selectively bound | – | – | –
2 | O=[N+]([O-])c1nccn1C1OC(CI)C(O)C1O (centres unmarked) [IAZR, (1-5'-iodo-5'deoxyribofuranosyl)-2-nitroimidazole] | – | 1.6 | – | – | greater hypoxic cell toxicity | rates of binding than MISO | subject to metabolic deiodination
